# System: moss
# Test: Experiment 1: ferrous sulfate/lime mixtures applied to 6″×6″ moss areas in triplicate
# Format: in vivo
# Conditions: in mixture with lime
# Experimental: In order to establish the effective concentration of ferrous sulfate in the formulation, mixtures of ferrous sulfate and lime with a ferrous sulfate concentration between 0 to 60% (w/w) were prepared (Table I) and applied to 6″×6″ area in triplicate. Water was sprayed over the area. The day time high temperature was 40° F. during the experiment and the night temperature decreased to 28° F. In one day, area with 30% or more ferrous sulfate concentration treatment turned black burning all the moss (Table II). The areas with 10% and 20% […] treatment were black in a week. There was no effect of 100% lime on the moss. Thus, a minimum concentration of 10% is suitable for the satisfactory results within a week. When % ferrous sulfate was more than 30%, the moss turned black in one day.
compound,measurement,value
"O.O.O.O.O.O.O.O=S(=O)([O-])[O-].[Fe+2] [ferrous sulfate, Ferrous sulfate septahydrate (FeSO4.7H2O)]",Minimum ferrous sulfate concentration suitable for satisfactory results within a week,10%

# Source: US8389020B1, “Immediate action and long-lasting formulation to control moss and liverwort” (Tara Innovations LLC, priority 2011, dated 2013)
